Test results from ChEMBL document CHEMBL1201862, “PubChem BioAssay data set” (2004).
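Protocol summary: plate cells (96-well), add compound at 5 concentrations, incubate 48 h, interpolate endpoints linearly. Here, GI50 denotes the concentration required for 50% inhibition of growth.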 Active and inactive are the calls of the source. No stated cut-off is given here; in the data, active = GI50 up to about 1.1 µM and inactive = higher.

Assays:
Assay in all cases: NCI anticancer screen, dose series, 48 h
HL-60 = system: HL-60
NCI-H522 = system: NCI-H522
LOX IMVI = system: LOX IMVI
SK-OV-3 = system: SK-OV-3
HCT-116 = system: HCT-116
Malme-3M = system: Malme-3M
SF-268 = system: SF-268
NCI-H23 = system: NCI-H23
A549 = system: A549
SN12C = system: SN12C
KM12 = system: KM12
NCI-H226 = system: NCI-H226
M14 = system: M14
HOP-62 = system: HOP-62
DMS-273 = system: DMS-273
786-0 = system: 786-0
CCRF-CEM = system: CCRF-CEM
HOP-92 = system: HOP-92
A498 = system: A498
T47D = system: T47D

Measured: GI50

O[C@]12c3ccccc3C1CCCC2N1CCOCC1 (some centres not stated)
inactive: HL-60 > 100 µM | NCI-H522 > 100 µM | LOX IMVI > 100 µM | SK-OV-3 > 100 µM | HCT-116 > 100 µM | Malme-3M > 100 µM | SF-268 > 100 µM | NCI-H23 > 100 µM | A549 > 100 µM | SN12C > 100 µM | KM12 > 100 µM | NCI-H226 > 100 µM | M14 > 100 µM | HOP-62 > 100 µM | DMS-273 > 100 µM | 786-0 > 100 µM | CCRF-CEM > 100 µM

CSc1n[n+]2c(s1)SCCC2
inactive: HL-60 > 100 µM | NCI-H522 26.9 µM | HOP-92 > 100 µM | LOX IMVI > 100 µM | HCT-116 > 100 µM | Malme-3M > 100 µM | SF-268 80.2 µM | NCI-H23 > 100 µM | A549 20.5 µM | SN12C > 100 µM | KM12 44.7 µM | M14 > 100 µM | HOP-62 95.5 µM | DMS-273 > 100 µM | 786-0 > 100 µM | CCRF-CEM > 100 µM

CNC(=O)CCCNC(=O)CCCC(=O)OC
inactive: HL-60 > 100 µM | NCI-H522 > 100 µM | HOP-92 > 100 µM | LOX IMVI > 100 µM | SK-OV-3 > 100 µM | HCT-116 > 100 µM | Malme-3M > 100 µM | SF-268 > 100 µM | NCI-H23 > 100 µM | A549 > 100 µM | A498 > 100 µM | SN12C > 100 µM | T47D > 100 µM | KM12 > 100 µM | NCI-H226 > 100 µM | M14 > 100 µM | HOP-62 > 100 µM | 786-0 > 100 µM | CCRF-CEM > 100 µM

Cc1nc(C)c(N2CCNCC2)c(O)n1
inactive: HL-60 > 100 µM | NCI-H522 > 100 µM | HOP-92 > 100 µM | LOX IMVI > 100 µM | SK-OV-3 > 100 µM | HCT-116 > 100 µM | Malme-3M > 100 µM | SF-268 > 100 µM | NCI-H23 > 100 µM | A549 > 100 µM | A498 > 100 µM | SN12C > 100 µM | T47D > 100 µM | KM12 > 100 µM | NCI-H226 > 100 µM | M14 > 100 µM | HOP-62 > 100 µM | 786-0 > 100 µM | CCRF-CEM > 100 µM

COc1ccc(CNC2=Nc3ccncc3S(=O)(=O)N2c2ccccc2)cc1
inactive: HL-60 12.8 µM | NCI-H522 34.1 µM | HOP-92 29.9 µM | LOX IMVI 46.9 µM | SK-OV-3 > 100 µM | HCT-116 36.5 µM | Malme-3M 49.9 µM | SF-268 52.4 µM | NCI-H23 35.5 µM | A549 40.6 µM | A498 35.9 µM | SN12C 80.9 µM | T47D 29.3 µM | KM12 35 µM | NCI-H226 17 µM | M14 57.7 µM | HOP-62 > 100 µM | 786-0 47.4 µM | CCRF-CEM 19.4 µM

O=C(O)c1c2c(cc3c1CC1(Cc4cc5c(cc4C1=O)CCC5)C3)CCC2 (configuration not stated)
inactive: HL-60 65.2 µM | NCI-H522 76.4 µM | HOP-92 > 100 µM | LOX IMVI 57.1 µM | SK-OV-3 > 100 µM | HCT-116 87.5 µM | Malme-3M > 100 µM | SF-268 > 100 µM | NCI-H23 81.1 µM | A549 54.8 µM | A498 > 100 µM | SN12C > 100 µM | T47D 80 µM | KM12 89.5 µM | NCI-H226 > 100 µM | M14 > 100 µM | HOP-62 > 100 µM | 786-0 > 100 µM | CCRF-CEM 46.2 µM

CCCCCC(O)(CCCCC)CCCCCCCCC1=C(O)C(=O)c2ccccc2C1=O
inactive: HL-60 3.51 µM | NCI-H522 12.2 µM | HOP-92 14.6 µM | LOX IMVI 4.97 µM | SK-OV-3 15.6 µM | HCT-116 3.83 µM | Malme-3M 11.5 µM | SF-268 6.95 µM | NCI-H23 8.15 µM | A549 9.64 µM | A498 13.3 µM | SN12C 9.04 µM | T47D 26.4 µM | KM12 5.62 µM | NCI-H226 14 µM | M14 10.8 µM | HOP-62 11.6 µM | 786-0 6.32 µM | CCRF-CEM 6.12 µM

Cc1cc(C)nc(NS(=O)(=O)c2ccc(NC(=O)c3cccc4c(NNc5ccc(S(=O)(=O)N=C(N)N)cc5)c5ccccc5nc34)cc2)n1
inactive: HL-60 > 50 µM | NCI-H522 > 50 µM | HOP-92 > 50 µM | LOX IMVI > 50 µM | SK-OV-3 > 50 µM | HCT-116 > 50 µM | Malme-3M > 50 µM | SF-268 > 50 µM | NCI-H23 > 50 µM | A549 > 50 µM | A498 > 50 µM | SN12C > 50 µM | T47D > 50 µM | KM12 > 50 µM | NCI-H226 > 50 µM | M14 > 50 µM | HOP-62 > 50 µM | 786-0 > 50 µM | CCRF-CEM > 50 µM

CC(=O)CC(C)(C)NC(=O)[C@@]1(O)CC[C@H]2[C@@H]3CCC4=CC(=O)CC[C@@H]4[C@H]3CC[C@@]21C
inactive: HL-60 70.3 µM | NCI-H522 > 100 µM | HOP-92 > 100 µM | LOX IMVI > 100 µM | SK-OV-3 > 100 µM | HCT-116 > 100 µM | Malme-3M > 100 µM | SF-268 > 100 µM | NCI-H23 > 100 µM | A549 > 100 µM | A498 > 100 µM | SN12C > 100 µM | T47D 63.1 µM | KM12 > 100 µM | NCI-H226 > 100 µM | M14 > 100 µM | HOP-62 > 100 µM | 786-0 > 100 µM | CCRF-CEM > 100 µM

CC(=O)COC(=O)CC(C)=O
inactive: HL-60 > 100 µM | NCI-H522 > 100 µM | LOX IMVI > 100 µM | SK-OV-3 > 100 µM | HCT-116 > 100 µM | Malme-3M > 100 µM | SF-268 > 100 µM | NCI-H23 > 100 µM | A549 > 100 µM | SN12C > 100 µM | KM12 > 100 µM | NCI-H226 > 100 µM | M14 > 100 µM | HOP-62 > 100 µM | DMS-273 > 100 µM | 786-0 > 100 µM | CCRF-CEM > 100 µM

c1ccc(C2=NOC(c3ccccc3)N2C23CC4CC(CC(C4)C2)C3)cc1 (configuration not stated)
inactive: HL-60 > 10 µM | NCI-H522 > 10 µM | HOP-92 > 10 µM | LOX IMVI > 10 µM | SK-OV-3 > 10 µM | HCT-116 > 10 µM | Malme-3M > 10 µM | SF-268 > 10 µM | NCI-H23 > 10 µM | A549 > 10 µM | A498 > 10 µM | SN12C > 10 µM | T47D > 10 µM | KM12 > 10 µM | NCI-H226 > 10 µM | M14 > 10 µM | HOP-62 > 10 µM | 786-0 > 10 µM | CCRF-CEM > 10 µM
